Data from PMC5177629, “Selective Estrogen Receptor Modulators: Cannabinoid Receptor Inverse Agonists with Differential CB1 and CB2 Selectivity” (Frontiers in Pharmacology, 2016).
Entries after “also recorded” stand apart in the source; their conditions may differ. Marks after values point to notes of the source that are not given here.

Tests used:
[1] = molecular target: T1, human cannabinoid type-2 receptors (hCB2) (Homo sapiens, UniProt P34972); experiment: [35S]GTPγS binding, CHO-hCB2 membranes; format: biochemical; settings: for intrinsic activity at hCB2Rs (partial or full inverse agonist): [35S]GTPγS binding, CHO-hCB2, 10 μM, compared with AM-630
T1 construct: expressed in transfected cells; host or cells: CHO cells (CHO-hCB2), membranes or intact cells
T1 sequence (P34972 whole entry): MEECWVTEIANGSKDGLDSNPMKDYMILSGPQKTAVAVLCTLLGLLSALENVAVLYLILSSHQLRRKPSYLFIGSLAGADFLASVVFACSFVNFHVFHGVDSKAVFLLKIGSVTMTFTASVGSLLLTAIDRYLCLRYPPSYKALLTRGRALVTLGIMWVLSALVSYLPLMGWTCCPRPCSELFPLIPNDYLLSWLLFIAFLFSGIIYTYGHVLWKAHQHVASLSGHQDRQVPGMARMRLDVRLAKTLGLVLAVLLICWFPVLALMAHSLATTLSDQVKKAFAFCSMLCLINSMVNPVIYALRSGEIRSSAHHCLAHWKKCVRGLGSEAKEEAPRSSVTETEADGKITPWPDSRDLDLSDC
Experimental: (§1) In short, pellets were thawed on ice, combined in a 40 ml glass Dounce homogenizer and homogenized in 20 ml of cold buffer (50 mM HEPES at pH 7.4, 3 mM MgCl2, and 1 mM EGTA) using 10 strokes. Homogenates were then centrifuged at 40,000 × g for 10 min at 4°C. After discarding the supernatant, pellets were homogenized and centrifuged twice more. Final pellets were re-suspended in ice-cold 50 mM HEPES, pH 7.4, aliquoted and stored at -80°C for future use. Protein concentration was determined the same day, prior to freezing, using BCA^TM Protein Assay (Thermo Fisher Scientific, Waltham, MA, USA).
(§2) Non-specific binding was defined by radioactivity remaining in the presence of 10 μM of non-radioactive GTPγS. All reactions were incubated for 30 min at 30°C, terminated by filtration through Whatman GF/B glass fiber filters (Brandel, Inc.) and followed by four 4 ml washes of ice cold filtration buffer (50 mM HEPES, pH 7.4) containing 0.1% bovine serum albumin. Filter punches of individual samples were placed in scintillation vials containing 4 mls of ScintiverseTM BD cocktail scintillation fluid (Fisher Scientific, Pittsburg, PA, USA). Final counts were determined using liquid scintillation spectrophotometry (Tri Carb 2100 TR Liquid Scintillation Analyzer, Packard Instrument Company, Meriden, CT, USA) after overnight incubation.
(§3) Statistical analyses were conducted by utilizing GraphPad Prism v6.0g (GraphPad Software, Inc.; San Diego, CA, USA). IC50 values from competition receptor binding curves were derived by non-linear regression. […] Non-linear regression analysis of concentration-effect curves was also used to determine potency (ED50 or IC50) and efficacy (Emax or Imax) for modulation of GTPγS and adenylyl cyclase activity, respectively. All IC50, EC50, Ki, and Kb values were converted to pEC50, pIC50, pKi, and pKb values in order to permit use of parametric statistical analyses. For all experiments comparing three or more values, an one-way ANOVA was employed, followed by Dunnett’s or Tukey’s post hoc tests. For comparisons of two values, an unpaired t-test was utilized. To determine significant radioligand displacement or modulation of G-protein activity compared to basal levels, a one-sample t-test was employed.
(§4) CBRs are coupled to Gi/Go type G-proteins. Therefore, binding of agonists to CBRs leads to G-protein activation, antagonists produce no effect, and inverse agonists reduce basal G-protein activity produced by constitutively active receptors. SERMs were screened by examining the ability of a single receptor saturating concentration (10 μM) to modulate G-protein activity in membranes prepared from CHO-hCB1 and CHO-hCB2 cells. G-protein activation was quantified using employing [^35S]GTPγS, a non-hydrolyzable analog of GTP, that irreversibly binds to the G-proteins when activated.

[2] = molecular target: T1, human cannabinoid type-2 receptors (hCB2); experiment: Antagonism of CP-55,940 inhibition of adenylyl cyclase, intact CHO-hCB2 cells; format: cell-based
Experimental: (§5) Briefly, cells cultured between passages 4 and 15 were seeded into 24-well plates at a concentration of 6.5 million cells per plate and incubated overnight in a humidified incubator maintained at 37°C and 5% CO2. Growth media was removed the next day and replaced with media containing […] [^3H]adenine, 0.9g/L NaCl, and 0.5 mM isobutyl-methyl-xanthine (IBMX) for 2–3 h. Radioactive media was then removed and each well treated with 0.5 ml of varying concentrations of SERM compounds in a Krebs-Ringer-HEPES solution (10 mM HEPES, 110 mM NaCl, 25 mM Glucose, 55 mM Sucrose, 5 mM KCl, 1 mM MgCl2, 1.8 mM CaCl2, pH 7.4) containing 0.5 mM IBMX and 10 μM forskolin. Plates were then floated in a 37°C water bath for 15 min before reactions were terminated by addition of 50 μL of 2.2 N HCl to each well.
(§6) Reactions were then terminated by adding 50 μL of 2.2 N HCl to each well. [^3H]cAMP was isolated using alumina column chromatography and radioactivity quantified following addition of 10 mls of scintiverseTM BD cocktail scintillation fluid (Fisher Scientific, Pittsburg, PA, USA) by liquid scintillation spectrophotometry (Tri Carb 2100 TR Liquid Scintillation Analyzer, Packard Instrument Company, Meriden, CT, USA).
as §3
(§7) IC50 and Kb values were converted to pIC50 and pKb values (pIC50 = -Log[IC50] or pKb = -Log[Kb], respectively) to allow use of parametric statistics for comparison.

[3] = molecular target: T1, human cannabinoid type-2 receptors (hCB2); experiment: Adenylyl cyclase assay (forskolin-stimulated cAMP), intact CHO-hCB2 cells; format: cell-based
Experimental: as §5, §3
To provide a second measure of intrinsic activity, the ability of SERMs to modulate intracellular levels of cAMP in intact cells was examined (Figure 6). CBRs couple to Gi/Go-proteins, and thus cannabinoid agonists inhibit activity of the downstream intracellular effector adenylyl cyclase, reducing intracellular cAMP levels.

[4] = molecular target: T2, human cannabinoid type-1 receptors (hCB1) (Homo sapiens, UniProt P21554); experiment: Competition receptor binding with [3H]CP-55,940, CHO-hCB1 membranes; settings: single 1 μM concentration, 0.2 nM [3H]CP-55,940, CHO-hCB1
T2 construct: host or cells: CHO cells (CHO-hCB1), membranes or intact cells
T2 sequence (P21554 whole entry): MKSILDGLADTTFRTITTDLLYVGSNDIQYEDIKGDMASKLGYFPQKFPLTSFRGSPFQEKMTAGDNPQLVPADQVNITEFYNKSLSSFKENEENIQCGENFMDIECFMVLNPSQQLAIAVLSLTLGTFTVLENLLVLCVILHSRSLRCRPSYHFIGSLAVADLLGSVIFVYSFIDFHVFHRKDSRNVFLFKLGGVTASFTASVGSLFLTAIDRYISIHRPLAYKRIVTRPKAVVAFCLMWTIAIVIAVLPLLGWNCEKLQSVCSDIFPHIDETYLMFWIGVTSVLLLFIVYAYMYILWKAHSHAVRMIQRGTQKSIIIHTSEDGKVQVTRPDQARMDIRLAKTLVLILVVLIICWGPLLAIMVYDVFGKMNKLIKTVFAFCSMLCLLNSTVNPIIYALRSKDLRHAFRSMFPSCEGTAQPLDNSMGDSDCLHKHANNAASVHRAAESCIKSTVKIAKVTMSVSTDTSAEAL
Experimental: as §1
The final volume of each sample was 1 ml, containing 50 mM Tris-HCl buffer (pH 7.4), 0.05% bovine serum albumin, 5 mM MgCl2, increasing concentrations of non-radioactive competing SERM ligands, and either 100 μg of CHO-hCB1 or 50 μg of CHO-hCB2 membrane homogenates. […] Each sample condition was performed in triplicate and allowed to reach equilibrium at room temperature for 90 min. Reactions were terminated by rapid vacuum filtration through Whatman GF/B glass fiber filters (Brandel, Inc.), followed by four 4 ml washes of ice-cold filtration buffer (50 mM Tris at pH 7.4 and 0.05% BSA). Filter punches of individual samples were placed in scintillation vials containing 4 mls of ScintiverseTM BD cocktail scintillation fluid (Fisher Scientific, Pittsburg, PA, USA). Final counts were determined using liquid scintillation spectrophotometry (Tri Carb 2100 TR Liquid Scintillation Analyzer, Packard Instrument Company, Meriden, CT, USA) after overnight incubation.
as §3
(§8) For initial comparison of potential SERM binding to CBRs, 14 commercially available compounds from 5 structurally distinct classes (Figure 1) were subjected to a radioligand binding screen (Figure 2).

[5] = molecular target: T1, human cannabinoid type-2 receptors (hCB2); experiment: Competition receptor binding with [3H]CP-55,940, CHO-hCB2 membranes; settings: single 1 μM concentration, 0.2 nM [3H]CP-55,940, CHO-hCB2
Experimental: as §1, with “Membrane homogenates were prepared for competition receptor binding and [^35S]GTPγS binding studies by using pellets previously frozen of CHO-hCB1 or CHO-hCB2 cells as described in ([Franks et al., 2014]). In” for “In”
The final volume of each sample was 1 ml, containing 50 mM Tris-HCl buffer (pH 7.4), 0.05% bovine serum albumin, 5 mM MgCl2, increasing concentrations of non-radioactive competing SERM ligands, and either 100 μg of CHO-hCB1 or 50 μg of CHO-hCB2 membrane homogenates. Non-specific binding was defined by radioactivity remaining in the presence of 1 μM of the non-radioactive CB1/CB2 agonist WIN-55,212-2. Each sample condition was performed in triplicate and allowed to reach equilibrium at room temperature for 90 min. Reactions were terminated by rapid vacuum filtration through Whatman GF/B glass fiber filters (Brandel, Inc.), followed by four 4 ml washes of ice-cold filtration buffer (50 mM Tris at pH 7.4 and 0.05% BSA). Filter punches of individual samples were placed in scintillation vials containing 4 mls of ScintiverseTM BD cocktail scintillation fluid (Fisher Scientific, Pittsburg, PA, USA). Final counts were determined using liquid scintillation spectrophotometry (Tri Carb 2100 TR Liquid Scintillation Analyzer, Packard Instrument Company, Meriden, CT, USA) after overnight incubation.
Statistical analyses were conducted by utilizing GraphPad Prism v6.0g (GraphPad Software, Inc.; San Diego, CA, USA). IC50 values from competition receptor binding curves were derived by non-linear regression. Experimental IC50 values were converted to Ki values (a measure of receptor affinity) by using the Cheng–Prusoff equation ([Cheng and Prusoff, 1973]). Non-linear regression analysis of concentration-effect curves was also used to determine potency (ED50 or IC50) and efficacy (Emax or Imax) for modulation of GTPγS and adenylyl cyclase activity, respectively. All IC50, EC50, Ki, and Kb values were converted to pEC50, pIC50, pKi, and pKb values in order to permit use of parametric statistical analyses. For all experiments comparing three or more values, an one-way ANOVA was employed, followed by Dunnett’s or Tukey’s post hoc tests. For comparisons of two values, an unpaired t-test was utilized. To determine significant radioligand displacement or modulation of G-protein activity compared to basal levels, a one-sample t-test was employed.
as §8

[6] = molecular target: T2, human cannabinoid type-1 receptors (hCB1); experiment: [35S]GTPγS binding, CHO-hCB1 membranes; format: biochemical; settings: [35S]GTPγS binding, CHO-hCB1, compared with AM-251
Experimental: as §1, §2, §3, §4

[7] = molecular target: T2, human cannabinoid type-1 receptors (hCB1); experiment: Antagonism of CP-55,940 inhibition of adenylyl cyclase, intact CHO-hCB1 cells; format: cell-based
Experimental: as §5, §6, §3, §7

COc1ccc(C(=O)c2c(C)n(CCN3CCOCC3)c3cc(I)ccc23)cc1 [AM-630]
reduction of G-protein activity, hCB2Rs ([1]; CHO-hCB2 membranes, 10 μM): 34% | fold parallel shift-to-the-right of CP-55,940 concentration-effect curve, CHO-hCB2 ([2]; AM-630 1 μM pre-incubation): 33 fold | IMAX of CP-55,940 after pre-incubation with the drug ([2]; CHO-hCB2 cells, pre-incubation 30 min: OSP, NAF 10 μM, RAL, BAZ 2 μM, AM-630 1 μM): 31.7 ± 0.3% | Kb ([2]; calculated from shift of CP-55,940 curve, intact CHO-hCB2 cells, read-out: Kb (antagonist dissociation constant), CHO-hCB2): 55.4 nM | pKb, CHO-hCB2 ([2]; intact CHO-hCB2 cells, mean ± SEM): 7.26 ± .064^b | EMAX, Intracellular [3H]cAMP ([3]; elevation of cAMP): 214 ± 6.5^b % | EC50 ([3]; increase of cAMP, 10 μM forskolin, read-out: EC50, Intracellular [3H]cAMP): 398 nM | pEC50, Intracellular [3H]cAMP ([3]; mean ± SEM): 6.40 ± 0.096^c

CC1=C(c2ccc(O)cc2)[C@H](c2ccc(OCCN3CCCCC3)cc2)Oc2cc(O)ccc21 [acolbifene]
displacement of [3H]CP-55,940 from hCB1Rs [4]: fails to displace; also recorded: did not produce any displacement | displacement of [3H]CP-55,940 from hCB2Rs [5]: fails to displace; also recorded: did not produce any displacement

CN(C)CCOc1ccc(/C(=C(/CCCl)c2ccccc2)c2ccc(O)cc2)cc1 [4OH-TOR, 4-hydroxy-toremifene]
displacement of [3H]CP-55,940 from hCB1Rs [4]: approximately 50%

Oc1ccc2c(c1)CC[C@H](c1ccccc1)[C@@H]2c1ccc(OCCN2CCCC2)cc1 [LAS, lasofoxifene]
intrinsic activity at hCB2Rs (partial or full inverse agonist) [1]: partial inverse agonist activity

4-hydroxy-tamoxifen [4OH-TX]
displacement of [3H]CP-55,940 from hCB1Rs [4]: approximately 50% | intrinsic activity at CB1Rs (partial or full inverse agonist) [6]: partial

CC/C(=C(\c1ccc(O)cc1)c1ccc(OCCNC)cc1)c1ccccc1 [ENDX, endoxifen]
displacement of [3H]CP-55,940 from hCB1Rs [4]: approximately 50%

Cc1c(C(=O)NN2CCOCC2)nn(-c2ccc(Cl)cc2Cl)c1-c1ccc(I)cc1 [AM-281]
fold decrease in potency of CP-55,940, CHO-hCB1 ([7]; AM-281 1 μM pre-incubation): 16 fold | IMAX of CP-55,940 after pre-incubation with the drug ([7]; CHO-hCB1 cells, pre-incubation 30 min: OSP, NAF, BAZ 10 μM, RAL 2 μM, AM-281 1 μM): 35.7 ± 0.9% | Kb ([7]; calculated from shift of CP-55,940 curve, intact CHO-hCB1 cells, read-out: Kb (antagonist dissociation constant), CHO-hCB1): 155 nM | pKb, CHO-hCB1 ([7]; intact CHO-hCB1 cells, mean ± SEM): 6.810 ± 0.061^a

CC(C)N1CCN(c2ccc(C(=O)c3c(-c4ccc(O)cc4)sc4cc(O)ccc34)cc2)CC1 [Y-134]
intrinsic activity at hCB2Rs (partial or full inverse agonist) [1]: partial inverse agonist activity | intrinsic activity at CB1Rs (partial or full inverse agonist) [6]: partial
